What was measured:
[1] = test system: hepatitis C virus (HCV); assay: Viral load of patients infected with hepatitis C virus; assay type: in vivo
[2] = Behaviour on exposure to water (gelling); assay type: physicochemical; details: crystalline form exposed to water

In the case of `CC(C)C(=O)OC[C@@]1(N=[N+]=[N-])O[C@@H](n2ccc(N)nc2=O)[C@H](OC(=O)C(C)C)[C@@H]1OC(=O)C(C)C.Cl` [I, isobutyric acid (2R,3S,4R,5R)-5-(4-amino-2-oxo-2H-pyrimidin-1-yl)-2-azido-3,4-bis-iso-butyryloxy-tetrahydro-furan-2-ylmethyl ester; hydrochloride salt], the viral load [1] is reported as “decrease the viral load” and the “gel formation when exposed to water” value [2] is reported as “readily forms a gel when exposed to water”.
